How the values were obtained:
[1] = test system: expression of co-stimulatory molecules by Raw 264 macrophage cells; assay: Flow cytometry of co-stimulatory molecules CD40 and CD80 on macrophages treated with analgesic, with or without LPS; assay type: cell-based, Murine
Protocol: Murine RAW264.7 or J774 macrophage cells (obtained from ATCC) were used in this study. Cells were maintained in a culture medium containing RPMI 1640 supplemented with 10% fetal bovine serum (FBS), 15 mM HEPES, 2 mM L-glutamine, 100 U/ml penicillin, and 100 μg/ml of streptomycin. Cells were cultured at 37° C. in a 5% CO2 atmosphere and split (passages) once a week.
RAW264.7 macrophage cells were seeded in 96-well plates at a cell density of 1.5×10^5 cells per well in 100 μl of the culture medium. […] Briefly, the analgesics were dissolved in FBS-free culture medium (i.e., RPMI 1640 supplemented with 15 mM HEPES, 2 mM L-glutamine, 100 U/ml penicillin, and 100 μg/ml of streptomycin), and diluted to desired concentrations by serial dilution with the same medium. For cells treated with analgesic in the absence of LPS, 50 μl of analgesic solution and 50 μl of FBS-free culture medium were added to each well. For cells treated with analgesic in the presence of LPS, 50 μl of analgesic solution and 50 μl of LPS (from Salmonella typhimurium) in FBS-free culture medium were added to each well. All conditions were tested in duplicates.
After 24 or 48 hours of culture, 150 μl of culture supernatants were collected, spun down for 2 min at 8,000 rpm at 4° C. to remove cells and debris and stored at −70° C. for analysis of cytokine responses by ELISA. The cells were collected and washed by centrifugation (5 min at 1,500 rpm at 4° C.) in 500 μl of Phosphate buffer (PBS). Half of the cells were then snap frozen in liquid nitrogen and stored at −70° C. The remaining cells were stained with fluorescent monoclonal antibodies and analyzed by flow cytometry.
For flow cytometry analysis, macrophages were diluted in 100 μl of FACS buffer (phosphate buffered saline (PBS) with 2% bovine serum albumin (BSA) and 0.01% NaN3) and stained 30 min at 4° C. by addition of FITC-conjugated anti-CD40, PE-conjugated anti-CD80, PE-conjugated anti-CD86 antibody, anti MHC class II (I-A^d) PE (BD Bioscience). Cells were then washed by centrifugation (5 min at 1,500 rpm at 4° C.) in 300 μl of FACS buffer. After a second wash, cells were re-suspended in 200 μl of FACS buffer and the percentage of cells expressing a given marker (single positive), or a combination of markers (double positive) were analyzed with the aid of an Accuri C6 flow cytometer (BD Biosciences).

[2] = test system: COX2 expression by normal human bladder smooth muscle cells; assay: Cell-based ELISA of total COX2 in normal human bladder smooth muscle cells; details: for Total COX2 levels (Normalized RFUs) subject 1: mean of duplicates
Protocol: COX2 responses were analyzed by a Cell-Based ELISA using Human/mouse total COX2 immunoassay (R&D Systems), following the instructions of the manufacturer. Briefly, after cells fixation and permeabilization, a mouse anti-total COX2 and a rabbit anti-total GAPDH were added to the wells of the clear-bottom black 96-well cell culture microculture plates. After incubation and washes, an HRP-conjugated anti-mouse IgG and an AP-conjugated anti-rabbit IgG were added to the wells. Following another incubation and set of washes, the HRP- and AP-fluorogenic substrates were added. Finally, a Victor® V multilabel plate reader (PerkinElmer) was used to read the fluorescence emitted at 600 nm (COX2 fluorescence) and 450 nm (GAPDH fluorescence). Results are expressed as relative levels of total COX2 as determined by relative fluorescence unit (RFUs) and normalized to the housekeeping protein GAPDH.
(§1) Normal human bladder smooth muscle cells were isolated by enzymatic digestion from macroscopically normal pieces of human bladder. Cells were expended in vitro by culture at 37° C. in a 5% CO2 atmosphere in RPMI 1640 supplemented with 10% fetal bovine serum, 15 mM HEPES, 2 mM L-glutamine, 100 U/ml penicillin, and […] of streptomycin and passage once a week by treatment with trypsin to detach cells followed by reseeding in a new culture flask. The first week of culture, the culture medium was supplemented with 0.5 ng/ml epidermal growth factor, 2 ng/ml fibroblast growth factor, and 5 μg/ml insulin.
(§2) […] When no other effectors were added to the cells, 50 μl of RPMI 1640 without fetal bovine serum were added to the wells to adjust the final volume to 200 μl.
(§3) After 24 hours of culture, 150 μl of culture supernatants were collected, spun down for 2 min at 8,000 rpm at 4° C. to remove cells and debris and stored at −70° C. for analysis of Prostaglandin E2 (PGE2) responses by ELISA. Cells were fixed, permeabilized and blocked for detection of COX2 using a fluorogenic substrate. In selected experiment cells were stimulated 12 hours in vitro for analysis of COX2, PGE2 and cytokine responses.
(§4) COX2 and PGE2 responses were analyzed as described in Example 3. Cytokine responses were analyzed as described in Example 2.

[3] = test system: PGE2 secretion by normal human bladder smooth muscle cells; assay: PGE2 ELISA of normal human bladder smooth muscle cell supernatants; assay type: cell-based; details: for PGE2 levels (pg/ml) Subject 1: mean of duplicates
Protocol: Prostaglandin E2 responses were analyzed by a sequential competitive ELISA (R&D Systems). More specifically, culture supernatants or PGE2 standards were added to the wells of a 96-well polystyrene microplate coated with a goat anti-mouse polyclonal antibody. After one hour incubation on a microplate shaker, an HRP-conjugated PGE2 was added and plates incubated for an additional two hours at room temperature. The plates were then washed and HRP substrate solution added to each well. The color was allowed to develop for 30 min and the reaction stopped by addition sulfuric acid before reading the plate at 450 nm with wavelength correction at 570 nm. Results are expressed as mean pg/ml of PGE2.
as §1, §2, §3, §4

[4] = adult humans; cited from earlier work

**Q.** With `CC(=O)Nc1ccc(O)cc1` [Acetaminophen, N-acetyl-para-aminophenol] as the compound, how does the “effect on expression of the co-stimulatory molecules at the highest dose” value ([1]; 5 × 10^6 nM) read?
**A.** enhance

**Q.** What about the “effect on basal expression of co-stimulatory molecules CD40 and CD80 by macrophages” value ([1]; 5 × 10^5, 5 × 10^4, 5 × 10^3, 5 × 10^2, 50 and 5 nM) of the same compound?
**A.** inhibit

**Q.** And the “% Positive CD40+CD80+” value ([1]; analgesic alone, 5 nM, negative control 20.6)?
**A.** 7.5%

**Q.** And the “% Positive CD40+CD80+” value ([1]; analgesic alone, 50 nM, negative control 20.6)?
**A.** 9.5%

**Q.** And the “% Positive CD40+CD80+” value ([1]; analgesic alone, 500 nM, negative control 20.6)?
**A.** 8.3%

**Q.** And the “% Positive CD40+CD80+” value ([1]; analgesic alone, 5 × 10^3 nM, negative control 20.6)?
**A.** 9.8%

**Q.** And the “% Positive CD40+CD80+” value ([1]; analgesic alone, 5 × 10^4 nM, negative control 20.6)?
**A.** 12%

**Q.** What about the “% Positive CD40+CD80+” value ([1]; analgesic alone, 5 × 10^5 nM, negative control 20.6) of the same compound?
**A.** 18%

**Q.** And the “% Positive CD40+CD80+” value ([1]; analgesic alone, 5 × 10^6 nM, negative control 20.6)?
**A.** 63%

**Q.** And the “% Positive CD40+CD80+” value ([1]; analgesic plus LPS, analgesic 5 nM, LPS 5 ng/ml alone 77.8)?
**A.** 62.1%

**Q.** What about the “% Positive CD40+CD80+” value ([1]; analgesic plus LPS, analgesic 50 nM, LPS 5 ng/ml alone 77.8) of the same compound?
**A.** 66.2%

**Q.** What about the “% Positive CD40+CD80+” value ([1]; analgesic plus LPS, analgesic 500 nM, LPS 5 ng/ml alone 77.8) of the same compound?
**A.** 66.8%

**Q.** What about the “% Positive CD40+CD80+” value ([1]; analgesic plus LPS, analgesic 5 × 10^3 nM, LPS 5 ng/ml alone 77.8) of the same compound?
**A.** 68.8%

**Q.** What about the “% Positive CD40+CD80+” value ([1]; analgesic plus LPS, analgesic 5 × 10^4 nM, LPS 5 ng/ml alone 77.8) of the same compound?
**A.** 72.4%

**Q.** What about the “% Positive CD40+CD80+” value ([1]; analgesic plus LPS, analgesic 5 × 10^5 nM, LPS 5 ng/ml alone 77.8) of the same compound?
**A.** 82.7%

**Q.** What about the “% Positive CD40+CD80+” value ([1]; analgesic plus LPS, analgesic 5 × 10^6 nM, LPS 5 ng/ml alone 77.8) of the same compound?
**A.** 95.1%

**Q.** And the “Total COX2 levels (Normalized RFUs) subject 1” value ([2]; Carbachol 10^−3 M plus analgesic 50 μM, carbachol alone 437, unstimulated 230)?
**A.** 298 Normalized RFUs

**Q.** What about the “Total COX2 levels (Normalized RFUs) subject 2” value ([2]; Carbachol 10^−3 M plus analgesic 50 μM, carbachol alone 462, unstimulated 199) of the same compound?
**A.** 310 Normalized RFUs

**Q.** What about the “Total COX2 levels (Normalized RFUs) subject 2” value ([2]; LPS (10 μg/ml) plus analgesic 5 μM, LPS alone 633, unstimulated 199) of the same compound?
**A.** 457 Normalized RFUs

**Q.** And the “Total COX2 levels (Normalized RFUs) subject 1” value ([2]; LPS (10 μg/ml) plus analgesic 5 μM, LPS alone 672, unstimulated 230)?
**A.** 428 Normalized RFUs

**Q.** And the “Total COX2 levels (Normalized RFUs) subject 2” value ([2]; LPS (10 μg/ml) plus analgesic 50 μM, LPS alone 633, unstimulated 199)?
**A.** 509 Normalized RFUs

**Q.** And the “Total COX2 levels (Normalized RFUs) subject 1” value ([2]; LPS (10 μg/ml) plus analgesic 50 μM, LPS alone 672, unstimulated 230)?
**A.** 399 Normalized RFUs

**Q.** What about the “effect on the effect of carbachol and LPS on COX2 levels” value ([2]; LPS-induced responses: analgesic at either 5 μM or 50 μM) of the same compound?
**A.** suppress

**Q.** And the “PGE2 levels (pg/ml) Subject 2” value ([3]; Carbachol 10^−3 M plus analgesic 50 μM, carbachol alone 104, unstimulated <20.5)?
**A.** 62 pg/mL

**Q.** What about the “PGE2 levels (pg/ml) Subject 1” value ([3]; Carbachol 10^−3 M plus analgesic 50 μM, carbachol alone 129, unstimulated <20.5) of the same compound?
**A.** 76 pg/mL

**Q.** What about the “PGE2 levels (pg/ml) Subject 2” value ([3]; LPS (10 μg/ml) plus analgesic 5 μM, LPS alone 998) of the same compound?
**A.** 542 pg/mL

**Q.** And the “PGE2 levels (pg/ml) Subject 1” value ([3]; LPS (10 μg/ml) plus analgesic 5 μM, LPS alone 1125)?
**A.** 817 pg/mL

**Q.** What about the “PGE2 levels (pg/ml) Subject 2” value ([3]; LPS (10 μg/ml) plus analgesic 50 μM, LPS alone 998) of the same compound?
**A.** 540 pg/mL

**Q.** And the “PGE2 levels (pg/ml) Subject 1” value ([3]; LPS (10 μg/ml) plus analgesic 50 μM, LPS alone 1125)?
**A.** 803 pg/mL

**Q.** What about the “effect on the LPS-induced PGE2 responses” value ([3]; analgesic at either 5 μM or 50 μM) of the same compound?
**A.** suppress

**Q.** And the “Maximum serum levels after oral therapeutic doses” value [4]?
**A.** 11 to 18 mg/L
